pKi: −log10 of the molar value.
Biological target: Peptidyl-prolyl cis-trans isomerase FKBP1A (Homo sapiens, UniProt P62942)
Assay: Inhibition of FKBP12 rotamase activity

Peptidyl-prolyl cis-trans isomerase FKBP1A, sequence (P62942 whole entry): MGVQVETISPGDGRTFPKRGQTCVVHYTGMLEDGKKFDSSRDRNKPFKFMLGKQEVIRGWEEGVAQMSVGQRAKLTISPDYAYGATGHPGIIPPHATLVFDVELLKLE

`COc1ccc2c(c1)CCN1C(=O)C3CCCC(C21)N3S(=O)(=O)Nc1ccc(F)nc1` (centres undefined) was tested. Which pKi did it give?
Its pKi is 6.74.

With `COc1cc(C(=O)C(=O)N2C3CCCC2C2c4cc(Cl)ccc4CCN2C3=O)cc(OC)c1OC` (centres undefined) as the compound, how does the pKi read?
Its pKi is 6.90.

`COc1cc2c(c(OC)c1)C1C3CCCC(C(=O)N1CC2)N3S(=O)(=O)c1ccc(C#N)cc1` (centres undefined) was tested. Which pKi did it give?
The pKi was 7.09.

`CCc1ccc(S(=O)(=O)N2C3CCCC2C2c4c(cc(OC)cc4OC)CCN2C3=O)cc1` (centres undefined) was tested. Which pKi did it give?
The pKi was 6.58.

How did the pKi turn out when `COc1cc2c(c(OC)c1)C1C3CCCC(C(=O)N1CC2)N3S(=O)(=O)c1ccc(-c2ccc(Cl)c(Cl)c2)cc1` (centres undefined) was run?
The pKi was 6.81.

`COc1ccc2c(c1)CCN1C(=O)C3CCCC(C21)N3S(=O)(=O)Nc1cc(F)c(F)c(F)c1` (centres undefined) was tested. Which pKi did it give?
The pKi was 6.63.

`COc1cc2c(c(OC)c1)C1C3CCCC(C(=O)N1CC2)N3C(=O)C(=O)c1ccc(Cl)cc1` (centres undefined) was tested. Which pKi did it give?
The pKi was 7.14.

With `COc1cc2c(c(OC)c1)C1C3CCCC(C(=O)N1CC2)N3C(=O)C(=O)c1ccccc1` (centres undefined) as the compound, how does the pKi read?
The pKi was 7.00.

With `COc1ccc2c(c1)CCN1C(=O)C3CCCC(C21)N3S(=O)(=O)Nc1ccc(Cl)nc1` (centres undefined) as the compound, how does the pKi read?
The pKi was 6.44.

With `COc1cc2c(c(OC)c1)C1C3CCCC(C(=O)N1CC2)N3C(=O)C(=O)c1ccc(OC)c(OC)c1` (centres undefined) as the compound, how does the pKi read?
The pKi was 7.22.

With `COc1cc2c(c(OC)c1)C1C3CCCC(C(=O)N1CC2)N3C(=O)N(c1ccccc1C)c1ccccc1C` (centres undefined) as the compound, how does the pKi read?
The pKi was 6.48.

`CCc1ccc(C(=O)C(=O)N2C3CCCC2C2c4c(cc(OC)cc4OC)CCN2C3=O)cc1` (centres undefined) was tested. Which pKi did it give?
The pKi was 6.91.

With `COc1cc2c(c(OC)c1)C1C3CCCC(C(=O)N1CC2)N3C(=O)C(=O)c1cc(OC)c(OC)c(OC)c1` (centres undefined) as the compound, how does the pKi read?
The pKi was 7.16.

With `COc1cc(OC)cc(C(=O)C(=O)N2C3CCCC2C2c4c(cc(OC)cc4OC)CCN2C3=O)c1` (centres undefined) as the compound, how does the pKi read?
Its pKi is 7.47.

How did the pKi turn out when `COc1cc2c(c(OC)c1)C1C3CCCC(C(=O)N1CC2)N3C(=O)C(=O)c1ccccc1Cl` (centres undefined) was run?
Its pKi is 6.23.

With `COc1cc2c(c(OC)c1)C1C3CCCC(C(=O)N1CC2)N3C(=O)C(=O)c1ccc(F)cc1` (centres undefined) as the compound, how does the pKi read?
Its pKi is 6.96.

How did the pKi turn out when `COc1cc(C(=O)C(=O)N2C3CCCC2C2c4cc(F)ccc4CCN2C3=O)cc(OC)c1OC` (centres undefined) was run?
Its pKi is 6.65.

`COc1cc(C(=O)C(=O)N2C3CCCC2C2c4c(F)cccc4CCN2C3=O)cc(OC)c1OC` (centres undefined) was tested. Which pKi did it give?
The pKi was 6.70.

How did the pKi turn out when `COc1cc2c(c(OC)c1)C1C3CCCC(C(=O)N1CC2)N3C(=O)C(=O)c1cccc(Cl)c1` (centres undefined) was run?
Its pKi is 7.34.

With `COc1cc2c(c(OC)c1)C1C3CCCC(C(=O)N1CC2)N3S(=O)(=O)c1ccccc1` (centres undefined) as the compound, how does the pKi read?
Its pKi is 6.61.

How did the pKi turn out when `COc1ccc2c(c1)CCN1C(=O)C3CCCC(C21)N3S(=O)(=O)Nc1ccc(F)c(F)c1` (centres undefined) was run?
The pKi was 6.82.

With `COc1ccc2c(c1)CCN1C(=O)C3CCCC(C21)N3S(=O)(=O)Nc1ccc(N2CCOCC2)nc1` (centres undefined) as the compound, how does the pKi read?
Its pKi is 6.23.

With `COc1ccc2c(c1)CCN1C(=O)C3CCCC(C21)N3C(=O)C(=O)c1cc(OC)c(OC)c(OC)c1` (centres undefined) as the compound, how does the pKi read?
The pKi was 6.84.

How did the pKi turn out when `COc1cc2c(c(OC)c1)C1C3CCCC(C(=O)N1CC2)N3C(=O)C(=O)c1cc(C(C)(C)C)c(O)c(C(C)(C)C)c1` (centres undefined) was run?
The pKi was 4.68.

With `COc1cc2c(c(OC)c1)C1C3CCCC(C(=O)N1CC2)N3C(=O)C(=O)c1ccc(Br)cc1` (centres undefined) as the compound, how does the pKi read?
The pKi was 7.15.

How did the pKi turn out when `CCN(CC)c1ccc(C(=O)C(=O)N2C3CCCC2C2c4c(cc(OC)cc4OC)CCN2C3=O)cc1` (centres undefined) was run?
The pKi was 6.00.

How did the pKi turn out when `COc1cc(C(=O)C(=O)N2C3CCCC2C2c4ccc(Cl)cc4CCN2C3=O)cc(OC)c1OC` (centres undefined) was run?
Its pKi is 6.77.

`COc1cc2c(c(OC)c1)C1C3CCCC(C(=O)N1CC2)N3C(=O)Cc1ccc(Cl)cc1` (centres undefined) was tested. Which pKi did it give?
The pKi was 5.51.

`COc1cc(C(=O)C(=O)N2C3CCCC2C2c4cccc(Cl)c4CCN2C3=O)cc(OC)c1OC` (centres undefined) was tested. Which pKi did it give?
The pKi was 6.82.

`COc1cc2c(c(OC)c1)C1C3CCCC(C(=O)N1CC2)N3C(=O)C(=O)c1ccccc1O` (centres undefined) was tested. Which pKi did it give?
Its pKi is 6.62.

With `COc1ccc2c(c1)CCN1C(=O)C3CCCC(C21)N3S(=O)(=O)Nc1cc(F)c(F)cc1F` (centres undefined) as the compound, how does the pKi read?
The pKi was 6.23.

With `COc1cc2c(c(OC)c1)C1C3CCCC(C(=O)N1CC2)N3C(=O)C(=O)c1cccs1` (centres undefined) as the compound, how does the pKi read?
Its pKi is 6.97.

With `COc1cc2c(c(OC)c1)C1C3CCCC(C(=O)N1CC2)N3C(=O)C(=O)c1ccco1` (centres undefined) as the compound, how does the pKi read?
Its pKi is 6.55.

`COc1ccc(C(=O)C(=O)N2C3CCCC2C2c4c(cc(OC)cc4OC)CCN2C3=O)cc1` (centres undefined) was tested. Which pKi did it give?
Its pKi is 6.88.

With `COc1cc2c(c(OC)c1)C1C3CCCC(C(=O)N1CC2)N3S(=O)(=O)c1ccc(C)cc1` (centres undefined) as the compound, how does the pKi read?
Its pKi is 7.08.

`COc1cc2c(c(OC)c1)C1C3CCCC(C(=O)N1CC2)N3C(=O)N(c1ccc([N+](=O)[O-])cc1)c1ccc([N+](=O)[O-])cc1` (centres undefined) was tested. Which pKi did it give?
The pKi was 6.11.

With `COc1cc2c(c(OC)c1)C1C3CCCC(C(=O)N1CC2)N3C(=O)C(=O)c1ccc(Cl)c(Cl)c1` (centres undefined) as the compound, how does the pKi read?
Its pKi is 7.47.

With `COc1ccc2c(c1)CCN1C(=O)C3CCCC(C21)N3S(=O)(=O)Nc1ccc(OC)nc1` (centres undefined) as the compound, how does the pKi read?
The pKi was 6.68.

`COc1cc2c(c(OC)c1)C1C3CCCC(C(=O)N1CC2)N3S(=O)(=O)c1cccc(Br)c1` (centres undefined) was tested. Which pKi did it give?
Its pKi is 7.27.

With `COc1cc2c(c(OC)c1)C1C3CCCC(C(=O)N1CC2)N3C(=O)C(=O)c1cccc(Cl)c1Cl` (centres undefined) as the compound, how does the pKi read?
The pKi was 6.55.

`COc1ccc2c(c1)CCN1C(=O)C3CCCC(C21)N3S(=O)(=O)N1CCCCC1` (centres undefined) was tested. Which pKi did it give?
The pKi was 6.44.

How did the pKi turn out when `COc1cc2c(c(OC)c1)C1C3CCCC(CN1CC2)N3C(=O)C(=O)c1cc(OC)c(OC)c(OC)c1` (centres undefined) was run?
Its pKi is 4.50.

`COc1cc2c(c(OC)c1)C1C3CCCC(C(=O)N1CC2)N3C(=O)C(=O)c1cccnc1` (centres undefined) was tested. Which pKi did it give?
Its pKi is 6.96.

With `COc1cc2c(c(OC)c1)C1C3CCCC(C(=O)N1CC2)N3C(=O)C(O)c1ccc(Cl)cc1` (centres undefined) as the compound, how does the pKi read?
The pKi was 6.68.

With `COc1cc2c(c(OC)c1)C1C3CCCC(C(=O)N1CC2)N3C(=O)N(c1ccc(F)cc1F)c1ccc(F)cc1F` (centres undefined) as the compound, how does the pKi read?
The pKi was 5.15.

How did the pKi turn out when `COc1cc2c(c(OC)c1)C1C3CCCC(C(=O)N1CC2)N3C(=O)C(=O)c1cc2ccccc2[nH]1` (centres undefined) was run?
The pKi was 5.64.

How did the pKi turn out when `COc1cc2c(c(OC)c1)C1C3CCCC(C(=O)N1CC2)N3S(=O)(=O)c1cccc(C)c1` (centres undefined) was run?
Its pKi is 6.98.

With `COc1cc(C(=O)C(=O)N2C3CCCC2C2c4ccccc4CCN2C3=O)cc(OC)c1OC` (centres undefined) as the compound, how does the pKi read?
Its pKi is 6.66.

How did the pKi turn out when `COc1cc2c(c(OC)c1)C1C3CCCC(C(=O)N1CC2)N3C(=O)N(c1ccccc1)c1ccccc1` (centres undefined) was run?
Its pKi is 5.57.

`COc1ccc2c(c1)CCN1C(=O)C3CCCC(C21)N3S(=O)(=O)Nc1cc(OC)c(OC)c(OC)c1` (centres undefined) was tested. Which pKi did it give?
Its pKi is 6.19.

How did the pKi turn out when `COc1cc2c(c(OC)c1)C1C3CCCC(C(=O)N1CC2)N3C(=O)C(=O)c1cc(Cl)ccc1Cl` (centres undefined) was run?
The pKi was 6.82.

`COc1cc(C(=O)C(=O)N2C3CCCC2C2c4cc(C)ccc4CCN2C3=O)cc(OC)c1OC` (centres undefined) was tested. Which pKi did it give?
The pKi was 7.07.

`COc1cc2c(c(OC)c1)C1C3CCCC(C(=O)N1CC2)N3C(=O)C(F)(F)c1cc(OC)c(OC)c(OC)c1` (centres undefined) was tested. Which pKi did it give?
The pKi was 7.04.

With `COc1cccc2c1CCN1C(=O)C3CCCC(C21)N3C(=O)C(=O)c1cc(OC)c(OC)c(OC)c1` (centres undefined) as the compound, how does the pKi read?
The pKi was 6.98.

With `COc1cc2c(c(OC)c1)C1C3CCCC(C(=O)N1CC2)N3S(=O)(=O)c1ccc(Nc2cc(OC)c(OC)c(OC)c2)cc1` (centres undefined) as the compound, how does the pKi read?
The pKi was 6.54.

How did the pKi turn out when `COc1cc2c(c(OC)c1)C1C3CCCC(C(=O)N1CC2)N3S(=O)(=O)c1ccc(Br)cc1` (centres undefined) was run?
Its pKi is 7.04.

`COc1cc2c(c(OC)c1)C1C3CCCC(C(=O)N1CC2)N3C(=O)C(=O)c1ccc(Cl)cc1Cl` (centres undefined) was tested. Which pKi did it give?
The pKi was 6.23.

With `COc1ccc2c(c1)CCN1C(=O)C3CCCC(C21)N3S(=O)(=O)N1C[C@@H](C)O[C@@H](C)C1` (some centres undefined) as the compound, how does the pKi read?
The pKi was 6.91.

`COc1cc2c(c(OC)c1)C1C3CCCC(C(=O)N1CC2)N3C(=O)N(c1ccccc1OC)c1ccccc1OC` (centres undefined) was tested. Which pKi did it give?
The pKi was 6.45.

Source: ChEMBL document CHEMBL1149428, “Design, synthesis, and biological activity of novel polycyclic aza-amide FKBP12 ligands” (J Med Chem, 2006)
